Reference: ChEMBL document CHEMBL1150935, “New polyketides from the sponge Plakortis sp” (J Nat Prod, 1998)
Converted amounts (≈) assume the structure as drawn.

Assay: Toxicity against Artemia larvae
Type: organism-based
Details: in vivo, read-out: LD50 (the source's name)

Row | Compound | LC50 [µg/mL]
1 | CCCC[C@H](C)C[C@]1(CC)C=C(CC)/C(=C/C(=O)OC)O1 | 7 (≈ 23.8 µM)
2 | CCCC[C@H](C)CC1(CC)C=C(CC)C(CC(=O)OC)OO1 (some centres undefined) | 70 (≈ 224 µM)
3 | CCCC[C@H](C)CC1(CC)C=C(CC)C(CC(=O)OCC)OO1 (some centres undefined) | > 100
4 | CCCC[C@H](C)CC(CC)C[C@@]1(CC)C[C@H](CC)[C@H](CC(=O)O)OO1 (some centres undefined) | 15 (≈ 42.1 µM)
